Earlier results, collected in patent publication US20210275546A1, “HIGH DRUG LOAD SOLID ORAL DOSAGE FORMS OF DEXAMETHASONE” (Jubilant Pharma Holdings Inc., priority 2020, published 2021).
“Also recorded” adds a separate entry of the source.

- solubility in acetone (acetone): sparingly soluble
- solubility in dichloromethane (dichloromethane): slightly soluble
- solubility in ethanol (ethanol): sparingly soluble
- solubility in methanol (methanol): sparingly soluble
Structure (SMILES): C[C@@H]1C[C@H]2[C@@H]3CCC4=CC(=O)C=C[C@]4(C)[C@@]3(F)[C@@H](O)C[C@]2(C)[C@@]1(O)C(=O)CO [Dexamethasone, 9-fluoro-11β,17,21trihydroxy-16α-methylpregna-1,4-diene-3,20-dione]
- solubility in water (water): practically insoluble; also recorded: poorly water-soluble
